Test results taken from PMC3929365, “Benzimidazoisoquinolines: A New Class of Rapidly Metabolized Aryl Hydrocarbon Receptor (AhR) Ligands that Induce AhR-Dependent Tregs and Prevent Murine Graft-Versus-Host Disease” (PLoS ONE, 2014).
Several values for one entry are separate records, joined by “and”; a condition that tells them apart may be missing. Identical values can stand only once.

How the values were obtained:
[1] = tested on: AhR; assay: AhR-regulated (XRE) luciferase reporter gene assay in Hepa-1 cells; format: cell-based, mouse; conditions: 10 nM, 12 h, Hepa1 cells, XRE-luciferase reporter
Experimental: Figure 1 10-Cl-BBQ is a potent AhR ligand. A) Structure of 10-Cl-BBQ. […] C) Hepa-1 cells expressing endogenous AhR were transfected with an AhR-regulated luciferase reporter gene (xenobiotic responsive element (XRE)-MMTVpromoter-Luc) and the reporter gene activity was measured after 12 h of treatment with 1 nM TCDD or the indicated concentrations of 10-Cl-BBQ. D) Alteration in proteolytic pattern of AhR by 10-Cl-BBQ. Whole cell lysate (45 µg of protein) from mouse hepatoma Hepa1c1c7 cells was incubated with 100 nM 10-Cl-BBQ or 0.1% DMSO for 1 h at RT and proteolyzed by 1 µg/ml subtilisin for 1, 2, 4, and 8 min at RT. Proteolytic cleavage products of AhR were analyzed by immunoblot. E) Electrophoretic mobility shift assay showing the ligand-stimulated binding of AhR to XRE. Whole cell lysate (18 µg of protein) from mouse hepatoma Hepa1c1c7 cells was incubated with 10 nM 10-Cl-BBQ or 0.1% DMSO for 2 h at room temperature and ^32P-labeled oligonucleotide containing XRE for 20 min at room temperature. The samples were electrophoresed on a native polyacrylamide gel and the signal was visualized by Phosphor Imager. Unlabeled competitor XRE or antibody (Ab) against AhR or Arnt was co-incubated with ^32P-labeled oligonucleotide.
The mean luciferase activity is shown with SEM. […] 3-MC binding to AhR.

[2] = tested on: CaMKK; set-up: method as in PMID 11867640; conditions: cited from earlier work
[3] = tested on: AhR; set-up: method as in PMID 18755850; conditions: MCF-7 cells and human macrophages; cited from earlier work
[4] = tested on: AhR
Experimental: The AhR reporter gene assay was performed as previously described (20–22).
B) Hepa1 cells expressing endogenous AhR were transfected with a XRE-luciferase reporter gene. […] The mean luciferase activity is shown with SEM. C) Dose response curves for the competitive inhibition of [^3H] 3-MC binding to AhR.
3-methylcholanthrene (3-MC) to AhR (Fig. 5C).

[5] = tested on: donor CD4+ T cells; assay: AhR-Treg phenotype of alloactivated donor CD4+ T cells 48 h after initiating the GVH response; format: in vivo, B6D2F1 host mice; conditions: 10 mg/kg i.p. day 0 and day 1, analysed day 2, vs vehicle
Experimental: Splenocytes and lymphocytes were harvested from C57Bl/6 mice. In some experiments, T cells were purified by negative selection using a Pan-T kit (Miltenyi Biotec) and stained with 2 µM carboxyfluorescein succinimidyl ester (CFSE) (Life Technologies). At least 2×10^7 purified T cells or approximately 1×10^8 pooled splenocytes and lymphocytes were injected i.v. into B6D2F1 host mice to initiate the GVH response. GVHD pathology was assessed on a scale of 0 to 3 (0 = normal, 1 = moderate morbidity, 2 = severe morbidity, 3 = death) according to the following five criteria: weight-loss, posture, activity, fur texture and death and reported as a Clinical GVHD Score.
Host mice were treated daily with vehicle, 10-Cl-BBQ or BBQ analogues by i.p. injection. The vehicle consisted of a mixture of 6.7% anisole and peanut oil. Mice treated with a single i.p. dose of 15 µg TCDD/kg body weight in the same vehicle were used as positive controls.
Antibodies to CTLA-4, Foxp3, ICOS, CD62L, CD25, CD19, CD44) and a fixable viability dye were purchased from eBiosciences. Additional antibody reagents included CD4 and CD8 (Life Technologies); H-2D^d (Biolegend) and CD45RB (PharMingen). After surface staining, the cells were fixed and permeabilized with Cytofix/cytoperm (BD Biosciences) for intracellular CTLA-4 stain. The flow cytometry data were acquired on an FC500 instrument (Beckman Coulter) and the data were analyzed using WinList 7.0 (Verity Software House). Fluorescence minus one (FMO) controls were used for setting histogram gates during the analysis.
Figure 3 10-Cl-BBQ induces an AhR-dependent Treg phenotype 48 h after initiating the GVH response. On day 0, B6D2F1 host mice in groups of 5 were injected with CFSE-labeled C57Bl/6 T cells and given 15 mg/kg 10-Cl-BBQ, 15 µg/kg TCDD or vehicle by i.p. injection. At 24 h, an additional dose of 7 mg/kg 10-Cl-BBQ or vehicle was given. […] Treatment mean ± SEM is shown in the quadrant of interest. […] C) AhR-dependent induction of the donor Treg phenotype by 10-Cl-BBQ. On day 0, B6D2F1 host mice in groups of 5 were injected with donor T cells obtained from AhR^+/+ or AhR^−/− C57Bl/6 mice. Host mice were treated with 2 mg/kg10-Cl-BBQ or vehicle immediately following donor cell transfer and again at 24 hr. […] D) Dose-dependent induction of Treg phenotype by 10-Cl-BBQ. On day 0, B6D2F1 host mice in groups of 3–5 were injected with C57Bl/6 T cells. Mice were immediately treated with 0, 0.4, 2 or 10 mg/kg 10-Cl-BBQ and again on day 1. On day 2, expression of markers associated with the AhR-Treg phenotype increased as the dose of 10-Cl-BBQ increased. E) In the same mice as in D, lymph nodes were harvested and analyzed for expression of genes that were previously shown to increase under the same GVH conditions with TCDD treatment (13). […] Changes in gene expression were calculated relative to the β-actin gene, and the fold-induction was calculated by the ΔΔCt method using the vehicle-treated samples as a control. * = p<0.05 relative to vehicle treatment. […]

Row | Compound | activation of AhR (AhR-regulated reporter gene activity) [1] | concentration known to fully inhibit CaMKK [2] [µM] | concentration at which AhR activation occurred [3] [µM] | IC50 [4] | percentage of alloresponsive donor CD4+ T cells expressing CD25 with AhR-Treg markers ICOS, CD62Llow and CTLA-4 [5]
1 | NN1C(=O)c2ccc3c(=O)n4c5ccc(Cl)cc5nc4c4ccc(c2c34)C1=O [analogue 2, 2-Amino-10-chlorobenzimidazo[2,1-b]benzo[lmn][3,8]phenanthroline-1,3,6(2H)-trione] | did not induce reporter activity | – | – | – | –
2 | O=C(O)c1ccc2c3c1cccc3c(=O)n1c3ccccc3nc21 [analogue 5, 7-Oxo-7H-benzimidazo[2,1-a]benzo[de]isoquinoline-3-carboxylic acid, reference compound] | did not induce reporter activity | 25 | 25 | 45200 nM and 45000 nM | –
3 | Clc1cc2c(cc1Cl)Oc1cc(Cl)c(Cl)cc1O2 [TCDD, 2,3,7,8-tetrachlorodibenzo-p-dioxin, reference compound] | – | – | – | 4.7 nM | –
4 | 11-Chloro-8H-benzimidazo[2,1-a]phenanthro[3,4,5-defg]isoquinolin-8-one [analogue 3] | 2 fold | – | – | – | –
5 | O=c1c2ccc(Cl)c3cccc(c32)c2nc3cc(Cl)ccc3n12 [analogue 4, 4,11-Dichloro-7H-benzimidazo[2,1-a]benzo[de]isoquinolin-7-one] | 19 fold | – | – | 5.2 nM | significantly increased
6 | O=c1c2cccc3cccc(c32)c2nc3ccccc3n12 [analogue 1, 7H-Benzimidazo[2,1-a]benzo[de]isoquinolin-7-one] | 13 fold | – | – | 13.7 nM | significantly increased
